Test results reported in ChEMBL document CHEMBL3351755, “Elements and modulation of functional dynamics” (J Med Chem, 2014).

Columns and labels:
[1] = Binding affinity to hen egg-white lysozyme by NMR analysis; set-up: species or system Gallus gallus
[2] = Binding affinity to mouse major urinary protein by NMR analysis
[3] = biological target: T1, 6-phosphogluconolactonase (Trypanosoma brucei, UniProt Q9GRG6); assay: Binding affinity to Trypanosoma brucei 6-phospho-gluconalactonase by NMR analysis
T1 sequence (Q9GRG6 whole entry): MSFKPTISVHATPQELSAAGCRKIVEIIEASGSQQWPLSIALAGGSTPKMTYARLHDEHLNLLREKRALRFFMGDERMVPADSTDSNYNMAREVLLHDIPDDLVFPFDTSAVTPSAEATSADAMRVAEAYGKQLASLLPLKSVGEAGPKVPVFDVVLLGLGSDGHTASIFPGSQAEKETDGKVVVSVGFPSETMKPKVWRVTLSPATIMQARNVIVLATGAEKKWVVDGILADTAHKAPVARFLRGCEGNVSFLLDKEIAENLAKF

[4] = biological target: Galectin-3 (Homo sapiens, UniProt P17931); assay: Binding affinity to galectin-3 (unknown origin)
[5] = Binding affinity to quail siderocalin Q83 by NMR analysis; set-up: species or system Galliformes
[6] = Binding affinity to oxalocrotonate tautomerase (unknown origin) by NMR analysis
[7] = Binding affinity to ketosteroid isomerase (unknown origin) by NMR analysis
[8] = Binding affinity to Escherichia coli ribose binding protein by NMR analysis
[9] = Binding affinity to Escherichia coli glucose/galactose binding protein by NMR analysis
[10] = biological target: T2, Thiopurine S-methyltransferase (Homo sapiens, UniProt P51580); assay: Binding affinity to thiopurine methyltransferase (unknown origin) by NMR analysis
T2 sequence (P51580 whole entry): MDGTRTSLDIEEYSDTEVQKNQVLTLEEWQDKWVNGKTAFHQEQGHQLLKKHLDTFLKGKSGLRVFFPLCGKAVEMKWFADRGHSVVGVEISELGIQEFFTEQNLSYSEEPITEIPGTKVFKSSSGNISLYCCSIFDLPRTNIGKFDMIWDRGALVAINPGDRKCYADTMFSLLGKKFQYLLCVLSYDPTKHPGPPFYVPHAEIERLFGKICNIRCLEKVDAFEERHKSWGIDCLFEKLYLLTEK

Sequence of Galectin-3 (P17931 whole entry): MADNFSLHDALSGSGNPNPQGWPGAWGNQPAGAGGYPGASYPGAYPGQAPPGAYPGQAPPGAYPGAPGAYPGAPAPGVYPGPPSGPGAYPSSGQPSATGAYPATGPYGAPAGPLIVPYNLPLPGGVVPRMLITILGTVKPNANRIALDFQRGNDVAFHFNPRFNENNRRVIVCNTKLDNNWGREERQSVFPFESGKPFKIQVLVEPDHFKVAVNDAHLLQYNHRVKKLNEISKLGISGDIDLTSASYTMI

N[C@H]1[C@H](O[C@H]2[C@H](O)[C@@H](N)[C@H](O[C@H]3[C@H](O)[C@@H](N)C(O)O[C@@H]3CO)O[C@@H]2CO)O[C@H](CO)[C@@H](O)[C@@H]1O (stereo partly drawn)
Kd [1]: 14 µM

CCC(C)C1=NCCS1 (stereo not drawn)
Kd [2]: 900 nM

COc1nccnc1CC(C)C
Kd [2]: 300 nM

O=C(O)[C@H](O)[C@@H](O)[C@H](O)[C@H](O)COP(=O)(O)O
Kd [3]: 10 µM

CC(=O)N[C@H]1C(O)O[C@H](CO)[C@@H](O[C@@H]2O[C@H](CO)[C@H](O)[C@H](NC(=O)c3ccccc3)[C@H]2O)[C@@H]1O (stereo partly drawn)
Kd [4]: 18.2 µM

O=C(N[C@H]1COC(=O)[C@@H](NC(=O)c2cccc(O)c2O)COC(=O)[C@@H](NC(=O)c2cccc(O)c2O)COC1=O)c1cccc(O)c1O [ENTEROBACTIN]
Kd [5]: 0.5 nM

CC1(C)SCN(C(=O)[C@@H](CS)Cc2ccccc2)[C@H]1C(=O)O
Kd [6]: 590 µM

C[C@]12CC[C@H]3[C@@H](CCC4=CC(=O)CC[C@@H]43)[C@@H]1CC[C@@H]2O
Kd [7]: 5.5 µM

c1ccc(Nc2cccc3ccccc23)cc1
Kd [2]: 32 nM

O[C@@H]1[C@H](O)[C@H](O)CO[C@H]1O [RIBOSE (PYRANOSE)]
Kd [8]: 170 nM

OC[C@H]1OC(O)[C@H](O)[C@@H](O)[C@@H]1O (stereo partly drawn) [DEXTROSE]
Kd [9]: 290 nM

COc1c(F)c(F)c(C(=O)N[C@H]2[C@@H](O)[C@@H](CO)O[C@@H](O[C@H]3[C@H](O)[C@@H](NC(C)=O)C(O)O[C@@H]3CO)[C@@H]2O)c(F)c1F (stereo partly drawn)
Kd [4]: 3.3 µM

Nc1ncnc2c1ncn2[C@@H]1O[C@H](C[C@@H](N)CC[C@H](N)C(=O)O)[C@@H](O)[C@H]1O [SINEFUNGIN]
Kd [10]: 10 µM
